According to patent publication US11345659B2, “Pipecolic esters for inhibition of the proteasome” (THE BOARD OF REGENTS OF THE UNIVERSY OF TEXAS SYSTEM, priority 2018, dated 2022):
Entries after “also recorded” stand apart in the source; their conditions may differ.

Experiments:
26 S proteasome = biological target: T1, 26 S proteasome (Homo sapiens, UniProt P25787+P25789); assay: 26 S proteasome challenged with mixture of three substrates (surrogate proteinase assay); type: biochemical; conditions: mixture of ChT-L, T-L and Casp-L substrates, 33.3 μM each; read-out: IC50, 26 S proteasome with substrates for all three peptidases
T1 construct: purified from erythrocytes; purchased Enzo Life Sciences, Inc. (Farmingdale, N.Y.); host or cells: human erythrocytes
Protocol: Human housekeeping 20 S and 26 S and complexes purified from erythrocytes were purchased from Enzo Life Sciences, Inc. (Farmingdale, N.Y.). The 1 mg/ml stock 20 S proteasome was diluted to 0.2 mg/ml working solution in 50 mM Tris/HCl, pH 8 containing 20% glycerol (dilution buffer). For the 26 S proteasome stock, the dilution buffer was supplemented with 2 mM ATP, 1 mM MgCl2, and 1 mM DTT (dithiothreitol). The ChT-L peptidase activity was measured as arbitrary intensity units of fluorescence emitted by 7-amino-4-methylcoumarin (AMC) released from the canonical model peptide substrate succinyl-LeuLeuValTyr-methylcoumarin (SucLLVY-MCA; Bachem Bioscience Inc., Philadelphia, Pa.), used at concentration of 100 μM. Free AMC (Sigma-Aldrich, St. Louis, Mo.) was used as the standard. The Rpt5 C-terminal peptide was synthesized (standard solid-phase peptide chemistry) and purified to at least 98% purity by GenScript (Piscataway, N.J.). The Rpt5 peptide and the peptide substrate were dissolved in dimethylsulfoxide (DMSO) and such stock solutions were stored at −20° C. The total concentration of DMSO in final reaction mixtures never exceeded 3% (vol/vol).
The reaction was carried out in 96-well plates, in 100 μL of reaction mixture, for 1 hour at 37° C. In the case of 20 S proteasome, the reaction mixture consisted of 45 mM Tris/HCl, pH 8, 100 mM KCl with premixed 10 μM Rpt5 peptide and 100 μM Suc-LLVY-MCA, to which 200 ng (nearly […]) of proteasome and desired concentration of tested compounds in 1 μL of DMSO were added. […] The reaction rates were calculated from a linear segment of kinetic curves constructed from measurements in 1-minutes intervals (Fluoroskan Ascent plate reader; Thermo Fisher Scientific Inc., Waltham, Mass.). Reaction rates were calculated using a linear fit executed by Slope Analyzer and Enzyme Kinetics applications launched within Origin Pro 2017 (OriginLab). […]

mTOR = biological target: T2, mTOR (Homo sapiens, UniProt P42345+P62942); assay: Western blot of S6 phosphorylation in RPMI 8226 cells; type: cell-based; conditions: RPMI 8226, 24 hours; rapamycin 2 nM, compound 3 and B1 0.2 μM
T2 construct: endogenous in cells; host or cells: RPMI 8226 (ATCC)
Protocol: Human multiple myeloma RPMI 8226 cells were purchased from American Type Culture Collection (ATCC; Manassas, Va.) and cultured according to ATCC specifications. […] The content of live cells was determined by excluding the Trypan Blue-stained cells. The cells were counted with TC20 Automated Cell Counter (Bio-Rad Laboratories, Hercules, Calif.) and EC50 was calculated with Origin Pro 2017 (OriginLab Corporation, Northampton, Mass.). When indicated, the cells were harvested, washed twice in PBS, resuspended in dilution buffer and stored in −80° C. To prepare crude lysates the thawed preparations were vortexed with glass beads and centrifuged for 5 min 5,000×g (4° C.). The supernate was centrifuged for 20 min 14,000×g. The resulting supernate was used as “crude lysate.” SDS-PAGE was carried in 12% acrylamide, Tris-glycine gels from Invitrogen. Chameleon Duo (Li-Cor) and Rainbow RPN800E (GE Healthcare) molecular weight standards were separated on each gel alongside lysates. The proteins were transferred to nitrocellulose membrane in a semi-dry system. The membranes were probed with specific primary antibodies from Life Technologies (S6, PS6) and Li-Cor (COX IV), and then with secondary antibodies from Li-Cor. In each experiment visualization of S6, PS6 and COX IV was performed on the same membrane with Odyssey Infrared Imaging System (Li-Cor). […]

With `COc1cc(CCCOC(=O)[C@@H]2CCCCN2C(=O)OCc2ccccc2)cc(OC)c1OC` [Compound 3, 1-benzyl 2-(3-(3,4,5-trimethoxyphenyl)propyl) (S)-piperidine-1,2-dicarboxylate] the IC50 (26 S proteasome) was 1200 nM and the “activity of mTOR (phosphorylation of S6)” value (mTOR) was “neither B1 nor compound 3 affected the activity of mTOR; also recorded: did not inhibit the S6 phosphorylation”.
